Measured values published in patent US20240301504A1, “MULTIANALYTE BIOMARKERS FOR LUNG CANCER” (The Curators of the University of Missouri, priority 2021, published 2024).

Tested on: H1975 cells
Test: Trypan blue exclusion cell death assay in H1975 cells
Type: cell-based
Conditions: Osimertinib 100 nM, 24 hrs, FIG. 13C
Protocol: miRNA Transfections and Osimertinib treatments miRNA stock was prepared by suspending in RNAse-free water. Cells were seeded such that they were 70-80% confluent at the time of transfection. Cells were allowed to adhere for 24 hrs and then transfected with 25 nM of miRNA inhibitors against hsa-miR184 (Sigma #HSTUD0282), hsa-miR22-3p (Sigma #HSTUD0393) or 100 nM of hsa-let7b-5p miRNA mimic (Sigma c #HMI0007) using Lipofectamine 3000 (Invitrogen #L3000001). Osimertinib (100 nM) was added an hour after transfection to cells. Cells were allowed to incubate with transfection mix for 24 hrs at 37° C., 5% CO2 and then washed with 1× PBS and trypsinized to be used for cell count and Western blotting.

Q: Which H1975 cell death does the source give for `C=CC(=O)Nc1cc(Nc2nccc(-c3cn(C)c4ccccc34)n2)c(OC)cc1N(C)CCN(C)C` [Osimertinib] here?
A: The H1975 cell death was “induced”.
